Experimental data taken from patent US11939304B1, “Ethyl 6-(5-(3-fluorophenyl)-4-phenyl-4H-1,2,4-triazol-3-ylthio)hexanoate as an antimicrobial compound” (KING FAISAL UNIVERSITY, priority 2023, dated 2024).

Assays:
[1] = test system: Chrysosporium keratinophilum; assay: agar plate disc-diffusion, antifungal inhibition zone; type: cell-based; settings: Sabouraud's dextrose agar, 37° C., 72 hours, DMSO zone subtracted
Method: (§1) The agar plate disc-diffusion method was applied. […] The discs were then placed onto the surface of agar plates (nutrient agar for bacteria and Sabouraud's dextrose agar for fungi) seeded with the test organism. Each plate contained 15 mL of the agar medium, previously seeded with 0.2 mL of the broth culture of each organism pregrown for 18 hours. The plates were incubated at 37° C. for 48 hours, and 72 hours for fungi. The inhibition zones were measured in mm. Discs impregnated with DMSO were used as a control, and its inhibition zone was subtracted from the tested compound actual inhibition zone.

[2] = test system: Aspergillus flavus; assay: as above; type: cell-based; settings: Sabouraud's dextrose agar, 37° C., 72 hours, DMSO zone subtracted
Method: as §1

[3] = test system: Staphylococcus aureus; assay: agar plate disc-diffusion, antibacterial inhibition zone; type: cell-based; settings: nutrient agar, 37° C., 48 hours, DMSO zone subtracted
Method: as §1

[4] = test system: Pseudomonas aeruginosa; assay: as above; type: cell-based; settings: nutrient agar, 37° C., 48 hours, DMSO zone subtracted
Method: as §1

[5] = test system: Bacillus cereus; assay: as above; type: cell-based; settings: nutrient agar, 37° C., 48 hours, DMSO zone subtracted
Method: as §1

[6] = test system: Escherichia coli; assay: as above; type: cell-based; settings: nutrient agar, 37° C., 48 hours, DMSO zone subtracted
Method: as §1

[7] = A = concentration of comp. = 10,000 μL
[8] = B = concentration of comp. = 30,000 μL
[9] = C = concentration of comp. = 50,000 μL

In the case of `CCOC(=O)CCCCCSc1nnc(-c2cccc(F)c2)n1-c1ccccc1` [III, ethyl 6-(5-(3-fluorophenyl)-4-phenyl-4H-1,2,4-triazol-3-ylthio)hexanoate], the “inhibition zone, Chrysosporium keratinophilum, A” value [1, 7] was 23 mm, the “inhibition zone, Chrysosporium keratinophilum, B” value [1, 8] was 28 mm and the “inhibition zone, Chrysosporium keratinophilum, C” value [1, 9] was 42 mm. The “inhibition zone, Aspergillus flavus, A” value [2, 7] was 24 mm, the “inhibition zone, Aspergillus flavus, B” value [2, 8] was 27 mm and the “inhibition zone, Aspergillus flavus, C” value [2, 9] was 38 mm. The “inhibition zone, Staphylococcus aureus, A” value [3, 7] was 12 mm, the “inhibition zone, Staphylococcus aureus, B” value [3, 8] was 19 mm and the “inhibition zone, Staphylococcus aureus, C” value [3, 9] was 23 mm. For the same molecule, the “inhibition zone, Pseudomonas aeruginosa, A” value [4, 7] was 26 mm, the “inhibition zone, Pseudomonas aeruginosa, B” value [4, 8] was 29 mm and the “inhibition zone, Pseudomonas aeruginosa, C” value [4, 9] was 41 mm. For the same molecule, the “inhibition zone, Bacillus Cereus, A” value [5, 7] was 28 mm, the “inhibition zone, Bacillus Cereus, B” value [5, 8] was 30 mm and the “inhibition zone, Bacillus Cereus, C” value [5, 9] was 41 mm. For the same molecule, the “inhibition zone, Escherichia coli, A” value [6, 7] was 27 mm, the “inhibition zone, Escherichia coli, B” value [6, 8] was 35 mm and the “inhibition zone, Escherichia coli, C” value [6, 9] was 50 mm. It also gave a melting point of 107 to 109 °C.
